The inhibition in vivo is how much of the control response was suppressed.

The test system of one experiment is Rattus norvegicus. The experiment is described as follows: Anti-inflammatory activity in Rattus norvegicus Wistar (rat) assessed as inhibition of carrageenan-induced paw edema at 20 mg/kg, ip administered 30 min post carrageenan-challenge measured after 2.5 hr relative to control. It is filed as functional. Particulars: route intraperitoneal.
On to `CCc1nnc2sc(-c3c[nH]nc3-c3ccc(Cl)cc3)nn12`, for which the inhibition in vivo at 20 mg/kg came to 56.9%.

Turning to `CCc1nnc2sc(-c3c[nH]nc3-c3ccc(OC)cc3)nn12`, the inhibition in vivo at 20 mg/kg was 17.6%.

Take `CCCc1nnc2sc(-c3c[nH]nc3-c3ccccc3)nn12`: the inhibition in vivo at 20 mg/kg is 56.9%.

`CCCc1nnc2sc(-c3c[nH]nc3-c3ccc(Cl)cc3Cl)nn12`: the inhibition in vivo at 20 mg/kg was 23.5%.

As for `CCc1nnc2sc(-c3c[nH]nc3-c3ccc(F)cc3)nn12`, the inhibition in vivo at 20 mg/kg worked out at 23.5%.

Turning to `CCCc1nnc2sc(-c3c[nH]nc3-c3ccc(F)cc3)nn12`, the inhibition in vivo at 20 mg/kg worked out at 12%.

As for `CCc1nnc2sc(-c3c[nH]nc3-c3ccccc3)nn12`, the inhibition in vivo at 20 mg/kg was 29.4%.

Regarding `CCCc1nnc2sc(-c3c[nH]nc3-c3ccc(Cl)cc3)nn12`, the inhibition in vivo at 20 mg/kg is 64.7%.

Regarding `CCc1nnc2sc(-c3c[nH]nc3-c3ccc(Cl)cc3Cl)nn12`, the inhibition in vivo at 20 mg/kg stood at 25.5%.

Turning to `CCCc1nnc2sc(-c3c[nH]nc3-c3ccc(OC)cc3)nn12`, the inhibition in vivo at 20 mg/kg was found to be 13.5%.

For a further experiment, the system named is Rattus norvegicus. The experiment is described as follows: Anti-inflammatory activity in Rattus norvegicus Wistar (rat) assessed as inhibition of carrageenan-induced paw edema at 10 mg/kg, ip administered 30 min post carrageenan-challenge measured after 2.5 hr relative to control. It is filed as functional. Particulars: route intraperitoneal.
For `O=C(O)Cc1ccccc1Nc1c(Cl)cccc1Cl` [DICLOFENAC SODIUM], the inhibition in vivo at 10 mg/kg turned out to be 80.4%.
